According to article PMC3514216, “SRC Homology 2 Domain Binding Sites in Insulin, IGF-1 and FGF receptor mediated signaling networks reveal an extensive potential interactome” (Cell Communication and Signaling : CCS, 2012):

Legend:
Assay in all cases: Fluorescence polarization solution binding
Conditions in all cases: Rhodamine B-labeled peptide, GST-SH2, Beacon 2000, read-out: Affinity (KD)
Rasa1_C SH2 domain = biological target: T1, Rasa1_C SH2 domain (Homo sapiens, UniProt P20936)
T1 sequence (P20936 351-441 limits assumed): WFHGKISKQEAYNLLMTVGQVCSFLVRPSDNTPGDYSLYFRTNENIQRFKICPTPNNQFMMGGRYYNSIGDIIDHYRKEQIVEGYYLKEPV

Rasa1_N SH2 domain = Rasa1_N SH2 domain (Homo sapiens, UniProt P20936)
Chain of Rasa1_N SH2 domain (P20936 181-272 limits assumed): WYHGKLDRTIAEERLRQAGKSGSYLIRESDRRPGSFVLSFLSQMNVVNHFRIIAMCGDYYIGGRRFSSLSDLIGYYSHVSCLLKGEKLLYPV

PI3K1_C SH2 domain = PI3K1_C SH2 domain (Homo sapiens, UniProt P27986)
Chain of PI3K1_C SH2 domain (P27986 624-718 limits assumed): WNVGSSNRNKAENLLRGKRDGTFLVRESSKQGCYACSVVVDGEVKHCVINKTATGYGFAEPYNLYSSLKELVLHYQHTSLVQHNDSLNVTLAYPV
Source text: (§1) To verify the binding results obtained from addressable peptide arrays we employed an orthogonal method of determining SH2 interactions with peptide ligands. We measured the dissociation constants of 60 binary SH2-peptide pairs in solution by fluorescence polarization (Table 2, Additional file 2: Figures S3A-C).
(§2) Peptides were synthesized using FMOC-chemistry onto pre-loaded tenta-gel resins. Peptides were then labeled with Rhodamine B (Abbey Color) and then cleaved using trifluoroacetic acid. Peptides were lyophilized and then purified using a LC/MS (Agilent 2100). Dissociation constants were measured using the Beacon 2000 (Invitrogen) as previously described.
(§3) Binding Affinities determined by Fluorescence Polarization. Rhodamine B-labeled peptides were mixed with varying concentrations of GST-tagged SH2 domains. Fluorescence polarization measurements were read on a Beacon 2000 (Invitrogen). The curves were fit to a Michaelis-Menten equation to calculate the dissociation constant, KD. […] (C) Affinity measurements that fell below the 2X mean intensity and were considered array negative on the SPOT array.

PI3K1_N SH2 domain = PI3K1_N SH2 domain (Homo sapiens, UniProt P27986)
Chain of PI3K1_N SH2 domain (P27986 333-428 limits assumed): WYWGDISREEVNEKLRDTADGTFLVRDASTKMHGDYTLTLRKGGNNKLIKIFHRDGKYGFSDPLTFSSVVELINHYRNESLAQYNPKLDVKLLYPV
Source text: as §1, §2, §3

Ptpn11_N SH2 domain = biological target: T2, Ptpn11_N SH2 domain (Homo sapiens, UniProt Q06124)
T2 sequence (Q06124 6-102 limits assumed): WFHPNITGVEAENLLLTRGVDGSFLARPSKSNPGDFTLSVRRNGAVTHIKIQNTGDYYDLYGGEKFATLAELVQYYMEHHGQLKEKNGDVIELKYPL
Source text: as §1, §2, §3

CrkL SH2 domain = CrkL SH2 domain (Homo sapiens, UniProt P46109)
Chain of CrkL SH2 domain (P46109 14-102 limits assumed): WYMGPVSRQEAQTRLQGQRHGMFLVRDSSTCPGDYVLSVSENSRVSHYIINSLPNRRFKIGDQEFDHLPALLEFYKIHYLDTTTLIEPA
Source text: as §1, §2, §3

Grb2 SH2 domain = Grb2 SH2 domain (Homo sapiens, UniProt P62993)
Chain of Grb2 SH2 domain (P62993 60-152 limits assumed): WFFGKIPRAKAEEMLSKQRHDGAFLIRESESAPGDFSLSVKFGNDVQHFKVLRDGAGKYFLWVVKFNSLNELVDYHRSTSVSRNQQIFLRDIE
Source text: as §1, §2, §3

Plcg2_C SH2 domain = Plcg2_C SH2 domain (Homo sapiens, UniProt P16885)
Chain of Plcg2_C SH2 domain (P16885 646-735 limits assumed): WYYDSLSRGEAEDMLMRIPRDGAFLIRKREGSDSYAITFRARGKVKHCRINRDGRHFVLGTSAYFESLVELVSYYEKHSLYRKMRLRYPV
Source text: as §1
(§4) As noted above, this study performs well in terms of reproducing the literature reported interactions between the 50 SH2 domains tested and the 13 proteins represented on the addressable arrays (Table 1). A handful of differences with literature-reported interactions must, by necessity, be reconciled. Our assumption is that a high-throughput (HTP) study such as this one should capture upwards of 85% of known (literature reported) interactions and that results that differ from low throughput studies described in the literature should be subject to further testing to identify the nature of the discrepancy and reveal any weakness in the HTP dataset. […] For instance, FGFR1 Y-766 (SNQEpYLDLSMP) is reported to bind to PLCγ1 in a pTyr dependant manner based on mutational analysis of FGFR1 [55, 56]. […] This may imply that either this is a binding event specific to PLCγ1 (and not PLCγ2), or that the interaction reported at the level of the full-length protein may be more complex, perhaps requiring secondary contact sites that are not available within the context of the short peptide used in the current study. […] We have made an effort to limit false negatives to those of lower affinity, and we are aware of no instance in our dataset of a sub-micromolar affinity interaction being scored as array-negative.
(§5) Peptides were synthesized using FMOC-chemistry onto pre-loaded tenta-gel resins. […] Dissociation constants were measured using the Beacon 2000 (Invitrogen) as previously described.
(§6) Binding Affinities determined by Fluorescence Polarization. […] Fluorescence polarization measurements were read on a Beacon 2000 (Invitrogen). […]

Crk SH2 domain = Crk SH2 domain (Homo sapiens, UniProt P46108)
Chain of Crk SH2 domain (P46108 13-118 limits assumed): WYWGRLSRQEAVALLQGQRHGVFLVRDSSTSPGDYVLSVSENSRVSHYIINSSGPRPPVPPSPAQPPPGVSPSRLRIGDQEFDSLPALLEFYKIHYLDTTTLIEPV
Source text: as §1, §2, §3

Plcg2_N SH2 domain = Plcg2_N SH2 domain (Homo sapiens, UniProt P16885)
Chain of Plcg2_N SH2 domain (P16885 532-635 limits assumed): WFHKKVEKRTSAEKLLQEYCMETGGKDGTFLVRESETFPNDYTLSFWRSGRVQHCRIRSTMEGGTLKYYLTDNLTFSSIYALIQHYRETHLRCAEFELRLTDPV
Source text: as §1, §4, §5, §6

Shb SH2 domain = Shb SH2 domain (Homo sapiens, UniProt Q15464)
Chain of Shb SH2 domain (Q15464 410-504 limits assumed): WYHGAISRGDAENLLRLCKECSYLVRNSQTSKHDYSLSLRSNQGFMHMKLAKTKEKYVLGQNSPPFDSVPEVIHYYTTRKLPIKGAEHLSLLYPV
Source text: as §1, §2, §3

Row | Compound | Kd (Rasa1_C SH2 domain) | Kd (Rasa1_N SH2 domain) | Kd (PI3K1_C SH2 domain) | Kd (PI3K1_N SH2 domain) | Kd (Ptpn11_N SH2 domain) | Kd (CrkL SH2 domain) | Kd (Grb2 SH2 domain) | Kd (Plcg2_C SH2 domain) | Kd (Crk SH2 domain) | Kd (Plcg2_N SH2 domain) | Kd (Shb SH2 domain)
1 | CC(C)C[C@H](NC(=O)[C@H](CCC(=O)O)NC(=O)[C@H](Cc1ccc(OP(=O)(O)O)cc1)NC(=O)CNC(=O)[C@H](CCC(=O)O)NC(=O)[C@H](CCC(=O)O)NC(=O)[C@@H](N)CCCCN)C(=O)N1CCC[C@H]1C(=O)N[C@@H](Cc1ccc(O)cc1)C(=O)N[C@@H](CC(N)=O)C(=O)N1CCC[C@H]1C(=O)O [KEEGpYELPYNP] | 1.39 µM | 0.41 µM | 13 µM | 1.85 µM | > 50 µM | – | – | – | – | – | –
2 | CC[C@H](C)[C@H](NC(=O)[C@H](Cc1ccc(OP(=O)(O)O)cc1)NC(=O)[C@H](CC(N)=O)NC(=O)[C@H](CC(C)C)NC(=O)CNC(=O)[C@@H](N)CC(N)=O)C(=O)N[C@@H](CC(=O)O)C(=O)N[C@@H](CC(C)C)C(=O)N[C@@H](CC(=O)O)C(=O)N[C@@H](CC(C)C)C(=O)N[C@H](C(=O)O)C(C)C [NGLNpYIDLDLV] | – | – | – | 15 µM | – | > 50 µM | > 50 µM | – | – | – | –
3 | CC[C@H](C)[C@H](NC(=O)[C@H](CC(N)=O)NC(=O)[C@@H](NC(=O)[C@H](Cc1ccc(OP(=O)(O)O)cc1)NC(=O)[C@H](CCC(=O)O)NC(=O)CNC(=O)[C@@H]1CCCN1C(=O)[C@@H](N)CO)C(C)C)C(=O)N[C@@H](CCC(=O)O)C(=O)N[C@@H](Cc1ccccc1)C(=O)NCC(=O)O [SPGEpYVNIEFG] | – | – | – | 2.68 µM | 2.08 µM | – | – | 2.92 µM | > 20 µM | – | –
4 | CC(C)C[C@H](NC(=O)[C@H](CC(=O)O)NC(=O)[C@H](CC(C)C)NC(=O)[C@H](Cc1ccc(OP(=O)(O)O)cc1)NC(=O)[C@H](CCC(=O)O)NC(=O)[C@H](CC(=O)O)NC(=O)[C@@H](NC(=O)[C@@H](N)CO)[C@@H](C)O)C(=O)N[C@@H](CO)C(=O)N[C@@H](C)C(=O)N1CCC[C@H]1C(=O)O [STDEpYLDLSAP] | > 17 µM | – | 2.14 µM | – | 25 µM | – | – | 7.49 µM | – | > 50 µM | > 50 µM
